In experiment [1] the target is T1, human M2 receptor (Homo sapiens, UniProt P08172).
T1 sequence (P08172 1-466): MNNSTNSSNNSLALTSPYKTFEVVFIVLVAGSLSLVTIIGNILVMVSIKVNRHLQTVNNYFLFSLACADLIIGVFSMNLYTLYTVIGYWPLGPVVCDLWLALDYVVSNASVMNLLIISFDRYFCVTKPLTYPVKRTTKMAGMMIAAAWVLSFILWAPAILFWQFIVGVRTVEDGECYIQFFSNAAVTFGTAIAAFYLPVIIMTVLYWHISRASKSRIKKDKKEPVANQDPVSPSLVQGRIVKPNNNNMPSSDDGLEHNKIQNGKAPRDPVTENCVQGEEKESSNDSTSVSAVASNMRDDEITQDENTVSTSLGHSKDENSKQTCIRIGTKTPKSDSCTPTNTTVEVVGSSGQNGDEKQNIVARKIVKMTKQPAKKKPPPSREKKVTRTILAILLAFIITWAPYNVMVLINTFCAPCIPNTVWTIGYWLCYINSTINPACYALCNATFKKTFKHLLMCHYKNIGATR
The class given is cell-based. The conditions noted are these: α >1 = positive cooperativity.

The target of experiment [2] is T2, Human Recombinant M2 Muscarinic Acetylcholine Receptor (Homo sapiens, UniProt P08172).
T2 sequence (P08172 1-466): T1 sequence (P08172 1-466)
As to the kind of experiment: Selectivity test, Ca2+ release (Eurofins GPCRProfiler): allosteric modulator assay, M2 (B-3.2). Format: cell-based. The conditions noted are these: for Selectivity (Shift EC50 M2/Shift EC50 M4): Table 2, quotient of allosteric shifts M2/M4; for Selectivity (Shift EC50 M2/Shift EC50 M1): Table 3, quotient of allosteric shifts M2/M1. The protocol: B-3. Selectivity Test with Respect to Human Muscarinic Acetylcholine Receptors
Any potentially agonistic effect, or else positive allosteric effect, of the test substances on other human muscarinic acetylcholine receptors can be determined in a functional Ca^2+ release test (Eurofins; GPCRProfiler® Services in agonistic and allosteric mode for Mx Receptors; cat#: HTS600GPCR).
The substance test is conducted with a FLIPR^TETRA instrument (Molecular Devices).
After the agonism assay has ended, the assay plate is incubated at 25° C. for 7 min. After the incubation period, the positive allosteric modulator assay is initialized.
B-3.2. Allosteric Modulator Assay
In order to examine any positive or negative allosteric effect of the test substances on other human muscarinic acetylcholine receptors and the M2 receptor itself, every substance concentration is combined with an acetylcholine 8-point dose-response curve. Addition of agonist solution is again followed in turn by the measurement of cell fluorescence for a period of 180 sec. The shift in the acetylcholine dose-response curve (maximum shift in the EC50 of acetylcholine) is analysed and quantified by means of GraphPad PRISM (Sigmoidal dose-response (variable slope)−EC50). Finally, quotients of the allosteric shift for the M2 receptor and M4 receptor are formed, which function in turn as a measure of the respective selectivity.

The next experiment relates to anaesthetized rats. As to the kind of experiment: Effects on the heart rate in anaesthetized rats (B-9). The class given is in vivo, rat. The conditions noted are these: i.v. infusion via jugular vein over 5 min, dose not given, in some cases means of several determinations. The protocol: B-9. Effects of the Test Substances on the Heart Rate in Anaesthetized Rats
Male rats of the strain (WI) WU Br from the breeder Charles River are anaesthetized initially with a 4-5% isoflurane inhalation for approx. 3 min. Subsequently, anaesthesia is maintained using a 1.5% isoflurane inhalation. For this purpose, the anaesthetized animals are fixed on a heated operating plate. By means of visual inspection and between toe reflex, the depth of anaesthesia is checked.
For the application of the test substance, an i.v. route into the jugular vein is used. A caudal to cranial skin incision is then made longitudinally and both the cervical musculature and the salivary glands are severed. The right common carotid artery is exposed and blood supply is arrested both proximally and distally. Using microinstrumentation, a TIP catheter (1.2 F) is introduced into the vessel in order to measure the arterial pressure and the heart rate.
Initially, both parameters are monitored for 10 min in the basal state without substance addition. The substances to be investigated are dissolved in suitable solvent mixtures and subsequently administered at various dosages to a group of animals in each case via the jugular vein by an infusion pump over 5 min. A solvent-treated group is used as control under the same experimental conditions. The arterial blood pressure and heart rate with substance addition is determined for 20 min. The data are registered with the PowerLab system (AD instruments) and evaluated using the LabChart program (AD instruments).
The values determined in this manner for the percentage decrease in heart rate for individual working examples are given in Table 4 below (in some cases as means of a plurality of independent individual determinations): […]

In experiment [3] the target is T1, human M2 receptor. The conditions noted are these: for Emax: read-out: Efficiency.
Where [4] appears, read: test substance concentration 1 μM.
[5] abbreviates: test substance concentration 10 μM.
The mark [6] stands for this setting: shift in the acetylcholine dose-response curve (Allosteric EC50 shift, GraphPad PRISM).
Where [7] appears, read: Receptor activity EC50, M2-GIRK1/4 activation test, acetylcholine at EC20, allosteric potency, in some cases mean values from two or more determinations.

The values below come from patent US20190367516A1 (Bayer Pharma Aktiengesellschaft, priority 2015, published 2019).

SMILES strings stand for the structures. Where two headings read alike, the source gives them in different places.

As usually defined, the EC50 is the midpoint of the concentration-response curve. Higher therefore signals lower potency in that assay. Turning to `O=C(N[C@@H](C1CC1)C(F)(F)F)c1cn(-c2c(F)cc(F)cc2F)c2nc(N3C[C@@H](O)[C@H](O)C3)ccc2c1=O` [Example 590, N-[(1S)-1-Cyclopropyl-2,2,2-trifluoroethyl]-7-[(3R,4R)-3,4-dihydroxypyrrolidin-1-yl]-4-oxo-1-(2,4,6-trifluorophenyl)-1,4-dihydro-1,8-naphthyridine-3-carboxamide], the “Cooperativity (alpha factor)” value on human M2 receptor [1] (shift of acetylcholine dose-response curve (Allosteric EC50 shift)) amounted to 43. The “Selectivity (Shift EC50 M2/Shift EC50 M4)” value in experiment [2] (setting [4]) was 7. Besides, in experiment [2] (setting [5]), the “Selectivity (Shift EC50 M2/Shift EC50 M4)” value came out at 33 and the “Selectivity (Shift EC50 M2/Shift EC50 M1)” value amounted to 30. Moreover, in the experiment with anaesthetized rats, the “Reduction in heart rate (%)” value came to 13%. At human M2 receptor [3] (Receptor activity EC50, allosteric potency at EC20 acetylcholine, M2-GIRK1/4 reporter cells, in some cases mean of two or more determinations), this compound came in with an EC50 of 15 nM. For the same compound, at human M2 receptor [3], the Emax is 100%.
Consider `CC[C@@H](NC(=O)c1cn(-c2ccc(F)cc2F)c2nc(N3C[C@@H](O)CC3=O)ccc2c1=O)C(F)(F)F` [Example 175], for which the “Cooperativity (alpha factor)” value at human M2 receptor [1] (setting [6]) came to 33. Also, the “Selectivity (Shift EC50 M2/Shift EC50 M4)” value was 29 in experiment [2] (setting [4]) and 83 in experiment [2] (setting [5]). Moreover, in experiment [2] (setting [5]), the “Selectivity (Shift EC50 M2/Shift EC50 M1)” value came out at 287. For the same compound, the “Reduction in heart rate (%)” value in the experiment on anaesthetized rats is on record as 6%. This compound also displayed an EC50 at human M2 receptor [3] (setting [7]) of 69 nM. For the same compound, the Emax on human M2 receptor [3] amounted to 97.3%.
In the case of `O=C(N[C@@H](C1CC1)C(F)(F)F)c1cn(-c2c(F)cc(F)cc2F)c2nc(N3CCNC3=O)ccc2c1=O` [Example 323, N-[(1 S)-1-Cyclopropyl-2,2,2-trifluoroethyl]-4-oxo-7-(2-oxoimidazolidin-1-yl)-1-(2,4,6-trifluorophenyl)-1,4-dihydro-1,8-naphthyridine-3-carboxamide], the “Cooperativity (alpha factor)” value at human M2 receptor [1] (setting [6]) is given as 16. Also, the “Selectivity (Shift EC50 M2/Shift EC50 M4)” value in experiment [2] (setting [4]) stood at 52. In addition, in experiment [2] (setting [5]), the “Selectivity (Shift EC50 M2/Shift EC50 M4)” value came out at 44 and the “Selectivity (Shift EC50 M2/Shift EC50 M1)” value was 31. Also, the “Reduction in heart rate (%)” value in the experiment with anaesthetized rats turned out to be 13%. The compound further gave an EC50 on human M2 receptor [3] (setting [7]) of 14 nM.
